# From patent US12673035B2, “Solid dosage forms of elafibranor” (Genfit, priority 2023, dated 2026)
# Key:
# [1] = tested on: rat; assay: Acute toxicity study, single oral doses, rat; type: in vivo
# Protocol: (§1) According to acute toxicity study results, it can be concluded that elafibranor is extremely safe when administered as single oral doses in rat and mouse, since no sign of toxicity was detected up to the dose of 1000 mg/kg.
# [2] = tested on: mouse; assay: Acute toxicity study, single oral doses, mouse; type: in vivo
# Protocol: as §1
# [3] = tested on: patients with PBC and inadequate response to Ursodeoxycholic acid (UDCA); assay: Phase 2 double-blind, randomized, placebo-controlled trial in PBC; type: in vivo, human; details: for mean relative change from baseline to endpoint in serum ALP / median relative change from baseline to endpoint in the pruritus VAS / treatment effect estimate vs placebo, serum ALP (supportive analysis, ANCOVA with baseline ALP as covariate) / mean relative change from baseline to endpoint in GGT / treatment effect estimate vs placebo, GGT (non-parametric randomization-based ANCOVA) / response rates defined by at least 10%, 20% and 40% decrease in ALP from baseline to endpoint, compared to placebo: 12 weeks; for mean relative change from baseline to endpoint in GGT / treatment effect estimate vs placebo, GGT (non-parametric randomization-based ANCOVA) / response rates defined by at least 10%, 20% and 40% decrease in ALP from baseline to endpoint, compared to placebo: mITT set; for response rates defined by at least 10%, 20% and 40% decrease in ALP from baseline to endpoint, compared to placebo: Fishers exact test, p<0.001; for response rate as defined by Paris I risk scores (ALP≤3×ULN, AST≤2×ULN, bilirubin within normal limits) / response rate as defined by Paris II risk scores (ALP≤1.5×ULN, AST≤1.5×ULN, bilirubin within normal limits) / response rate as defined by Toronto I risk scores (ALP≤1.67×ULN) / response rate as defined by Toronto II risk scores (ALP≤1.75×ULN): baseline to endpoint
# Protocol: This example describes a double-blind, randomized, placebo-controlled trial to evaluate the efficacy and safety of elafibranor 80 mg and 120 mg once daily (qd) versus placebo in a PBC population.
# The study included a screening visit, followed by 12 weeks of double-blind treatment period. Patients attended study visits at randomization, Week 2, 4, 8, 12 during the treatment period.
# (§2) Elafibranor was administered per os, once daily at 80 mg or 120 mg, for 12 weeks, in the form of tablets of the invention (Formulations 4 and 3). The elafibranor 120 mg and 80 mg tablets contained elafibranor (active ingredient) and excipients (microcrystalline cellulose, povidone, croscarmellose, anhydrous colloidal silica, magnesium stearate, Opadry® II white). The white tablets were provided to the participants in aluminum blisters.
# The primary objectives were to compare the effect of daily oral administration of elafibranor 80 mg and 120 mg on changes in serum alkaline phosphatase (ALP) to that of placebo in patients with PBC and inadequate response to Ursodeoxycholic acid (UDCA).
# The primary endpoint of the study was to evaluate the efficacy of elafibranor 80 mg or 120 mg with respect to relative change from baseline in serum ALP levels compared to placebo.
# Absolute changes in serum ALP levels were monitored from Baseline to week 2, 4, 8 and 12.
# The treatment effect estimate was −52.0% (95% CI [−62.5; −41.5]) for the elafibranor 80 mg treatment group and −43.9% (95% CI [−55.7; −32.1]) for the elafibranor 120 mg treatment group.
# The primary efficacy supportive analysis conducted using an ANCOVA with baseline ALP as a covariate was consistent with the primary efficacy analysis. The treatment effect estimate was −51.4% (95% CI [−63.3; −39.5]) for the elafibranor 80 mg treatment group and −43.9% (95% CI [−55.8; −31.9]) for the elafibranor 120 mg treatment group.
# The percentage of patients was calculated who met the definition of PBC responder criteria applying the Paris I, Toronto I, Toronto II, […], Mayo II, and Barcelona disease prognostic risk criteria. Paris I risk scores were defined as ALP≤3×ULN and AST≤2×ULN and bilirubin within normal limits.
# Paris II risk scores were defined as ALP≤1.5×ULN and AST≤1.5×ULN and bilirubin within normal limits.
# Toronto I risk scores were defined as ALP≤1.67×ULN.
# Toronto II risk scores were defined as ALP≤1.75×ULN.
# Considering that pruritus is a preeminent adverse event in subjects with PBC, assessment of pruritus was also considered. More specifically, the change from baseline in pruritus (through 5D-itch scale (measuring the degree, duration, direction [improvement or worsening], disability [effect on daily activities], and distribution of itching) and visual analogue scale for pruritus (VAS).
# The 5D-itch scale is a reliable, multidimensional measure of itching that has been validated in patients with chronic pruritus to detect changes over time (Elman S, et al., The 5-D itch scale: a new measure of pruritus. Br J Dermatol. 2010; 162(3):587-593). The VAS is a reliable and validated method of pruritus assessment (Reich A, et al., Visual analogue scale: evaluation of the instrument for the assessment of pruritus. Acta Derm Venereol. 2012; 92(5):497-501).
# [4] = tested on: patients with PBC with an inadequate response or intolerance to Ursodeoxycholic acid (UDCA); assay: Phase 3 double-blind, randomized, placebo-controlled trial in PBC; type: in vivo, human; details: 80 mg once daily
# Protocol: This example describes a double-blind, randomized, placebo-controlled trial to evaluate the efficacy and safety of elafibranor 80 mg once daily (qd) versus placebo in a PBC population.
# The study included a screening visit, followed by 52 weeks of double-blind treatment period. Patients attended study visits at randomization, Week 4, 13, 26, and 39 during the treatment period.
# as §2, with “80” for “80 mg or 120”, “52” for “12”, “(Formulation 4).” for “(Formulations 4 and 3).”, “elafibranor” for “elafibranor 120 mg and”
# The primary objectives were to compare the effect of daily oral administration of elafibranor 80 mg on changes in relevant biochemical indicators of cholestasis or in pruritus to that of placebo in patients with PBC with an inadequate response or intolerance to Ursodeoxycholic acid (UDCA).
# [5] = tested on: liver function of subjects; assay: Phase 2a clinical studies and Phase 2b clinical trial, liver function; type: in vivo, human; details: 80 mg/day for 1 to 3 months (Phase 2a); 80 mg/day and 120 mg/day for 12 months (Phase 2b)
# [6] = tested on: patients with PBC with an inadequate response or intolerance to Ursodeoxycholic acid (UDCA); details: phase 3 trial NCT04526665, N Engl J Med 2023; cited from earlier work
# [7] = Particle size analysis of jet-milled (micronized) elafibranor; type: physicochemical
# Text: Particle size of agglomeration was identified as playing a primary role in the dissolution and variability in the blend uniformity and content uniformity of tablet formulations. In order to obtain suitable particle size distribution, milling of elafibranor was investigated. The micronisation process acts to accelerate grains of powder, with an air jet, in a tornado like flow path within the micronisation chamber of the mill. As particles travel in the circular path, they collide, which leads to a reduction in particle size. Centrifugal force directs larger particles to the outside of the chamber and smaller particles are concentrated in the centre of the mill where they can be transferred to the outlet when the appropriate particle size has been reached.
# The micronisation process of elafibranor has been performed with the following jet-mill equipment: Microniser Alpine 200 Aeroplex in ambient conditions of temperature and hygrometry.
# The feeder delivers the dosage to the microniser by two screws. This system allows a regularity of the flow. A disposable sleeve is used to separate the air and the micronised product at the end of the microniser.
# The micronised elafibranor powder is then collected into polyethylene bags and the obtained weight at the end of the micronisation operation has been recorded.
# acceptance criteria: D50%≤5 μm and D90%≤15 μm
# [8] = mean of clinical batches #1 to #7
smiles,measurement,setting,value
"CSc1ccc(C(=O)/C=C/c2cc(C)c(OC(C)(C)C(=O)O)c(C)c2)cc1 [elafibranor, 2-[2,6-dimethyl-4-[(E)-3-(4-methylsulfanylphenyl)-3-oxoprop-1-enyl]phenoxy]-2-methylpropanoic acid]",dose up to which no sign of toxicity was detected,[1],≥ 1000 mg/kg
same,dose up to which no sign of toxicity was detected,[2],≥ 1000 mg/kg
same,"treatment effect estimate vs placebo, relative change from baseline in serum ALP (primary analysis, non-parametric randomization-based ANCOVA)","[3]; 80 mg once daily per os, 12 weeks (Formulation 4 tablets)",−52.0%
same,mean relative change from baseline to endpoint in serum ALP,[3]; 80 mg once daily,−48.3%
same,median relative change from baseline to endpoint in the pruritus VAS,[3]; 80 mg once daily,−23.7%
same,"treatment effect estimate vs placebo, serum ALP (supportive analysis, ANCOVA with baseline ALP as covariate)",[3]; 80 mg once daily,−51.4%
same,mean relative change from baseline to endpoint in GGT,[3]; 80 mg once daily,−37.1%
same,"treatment effect estimate vs placebo, GGT (non-parametric randomization-based ANCOVA)",[3]; 80 mg once daily,−38.6%
same,"response rates defined by at least 10%, 20% and 40% decrease in ALP from baseline to endpoint, compared to placebo",[3]; 80 mg once daily,statistically significantly greater proportion of responders
same,"response rate as defined by Paris I risk scores (ALP≤3×ULN, AST≤2×ULN, bilirubin within normal limits)",[3]; 80 mg once daily,80.0%
same,"response rate as defined by Paris II risk scores (ALP≤1.5×ULN, AST≤1.5×ULN, bilirubin within normal limits)",[3]; 80 mg once daily,53.3%
same,response rate as defined by Toronto I risk scores (ALP≤1.67×ULN),[3]; 80 mg once daily,66.7%
same,response rate as defined by Toronto II risk scores (ALP≤1.75×ULN),[3]; 80 mg once daily,66.7%
same,"treatment effect estimate vs placebo, relative change from baseline in serum ALP (primary analysis, non-parametric randomization-based ANCOVA)","[3]; 120 mg once daily per os, 12 weeks (Formulation 3 tablets)",−43.9%
same,mean relative change from baseline to endpoint in serum ALP,[3]; 120 mg once daily,−40.6%
same,median relative change from baseline to endpoint in the pruritus VAS,[3]; 120 mg once daily,−49.5%
same,"treatment effect estimate vs placebo, serum ALP (supportive analysis, ANCOVA with baseline ALP as covariate)",[3]; 120 mg once daily,−43.9%
same,mean relative change from baseline to endpoint in GGT,[3]; 120 mg once daily,−40.0%
same,"treatment effect estimate vs placebo, GGT (non-parametric randomization-based ANCOVA)",[3]; 120 mg once daily,−39.9%
same,"response rates defined by at least 10%, 20% and 40% decrease in ALP from baseline to endpoint, compared to placebo",[3]; 120 mg once daily,statistically significantly greater proportion of responders
same,"response rate as defined by Paris I risk scores (ALP≤3×ULN, AST≤2×ULN, bilirubin within normal limits)",[3]; 120 mg once daily,78.6%
same,"response rate as defined by Paris II risk scores (ALP≤1.5×ULN, AST≤1.5×ULN, bilirubin within normal limits)",[3]; 120 mg once daily,50.0%
same,response rate as defined by Toronto I risk scores (ALP≤1.67×ULN),[3]; 120 mg once daily,78.6%
same,response rate as defined by Toronto II risk scores (ALP≤1.75×ULN),[3]; 120 mg once daily,78.6%
same,"biochemical response (primary end point), patients","[4]; 52 weeks (Formulation 4), 55 of 108 patients",51%
same,difference vs placebo in biochemical response,"[4]; 52 weeks, 95% CI 32 to 57",47 percentage points
same,patients in whom the alkaline phosphatase level normalized,[4]; at week 52,15%
same,difference vs placebo in alkaline phosphatase normalization,"[4]; at week 52, 95% CI 6 to 23",15 percentage points
same,difference vs placebo in least-squares mean change on the WI-NRS,"[4]; through week 52, moderate-to-severe pruritus, 95% CI −1.99 to 0.42, P=0.20",−0.78
same,least-squares mean change from baseline through week 52 on the WI-NRS,[4]; patients with moderate-to-severe pruritus,−1.93
same,"effects on liver function, relevant to PBC",[5],Beneficial effects
same,improvements in relevant biochemical indicators of cholestasis vs placebo,[6],significantly greater improvements in relevant biochemical indicators of cholestasis than placebo
CSc1ccc(C(=O)/C=C/c2cc(C)c(OC(C)(C)C(=O)O)c(C)c2)cc1 [micronized elafibranor],D50%,[7]; clinical batch #1,2.387 μm
same,D90%,[7]; clinical batch #1,6.292 μm
same,D50%,[7]; clinical batch #2,3.511 μm
same,D90%,[7]; clinical batch #2,10.06 μm
same,D50%,[7]; clinical batch #3,2.53 μm
same,D90%,[7]; clinical batch #3,6.439 μm
same,D50%,[7]; clinical batch #4,4.079 μm
same,D90%,[7]; clinical batch #4,10.895 μm
same,D50%,[7]; clinical batch #5,2.171 μm
same,D90%,[7]; clinical batch #5,6.589 μm
same,D50%,[7]; clinical batch #6,2.089 μm
same,D90%,[7]; clinical batch #6,6.495 μm
same,D50%,[7]; clinical batch #7,2.523 μm
same,D90%,[7]; clinical batch #7,6.671 μm
same,D50% mean,[7]; [8],2.756 μm
same,D90% mean,[7]; [8],7.634 μm
